# Assay results as given in patent US9694027B2, “Pyrazole derivative and use thereof for medical purposes” (KISSEI PHARMACEUTICAL CO. LTD., priority 2012, dated 2017).
# What was measured:
# [1] = test system: healthy adult males; experiment: Single-dose study in healthy adult males (Example 3); assay type: in vivo, human; settings: for Number of subject with gastrointestinal disorders: Abdominal bloating / Number of subject with gastrointestinal disorders: Abdominal pain / Number of subject with gastrointestinal disorders: Diarrhea: of 6 subjects; for Frequency of bowel movement after the administration, Mean: 6 subjects, 48 hours, Placebo 1.7
# Protocol: Compound 2 at a single dose of 2, 5, 10, 20, 40, 80 or 160 mg (free drug equivalent), or placebo was orally administered just immediately before breakfast to healthy adult males. For the administration of Compound 2, tablets containing 1, 5 or 10 mg in free drug equivalent were used. The test period was set between the administration and the discharge 48 hours after the administration. Frequencies of bowel movements were checked during consultation by a doctor, and the adverse events (gastrointestinal disorders) were defined when an abnormal finding (diarrhea or loose stool) was seen based on the stool form and the finding.
# [2] = test system: rat model of low-fiber diet-induced constipation; experiment: Rat model of low-fiber diet-induced constipation (Example 2); settings: for Fecal weight within 24 hours after the administration: followed by mixed carbohydrate, n=4, Control group 1 0.53, Normal feed group 8.33
# Protocol: Compound 2 was weighed and was dissolved in distilled water at preparation concentrations of 3, 10 and 30 mg/mL as the free drug to prepare test compounds.
# 0.5% methylcellulose (0.5% MC) was used as a vehicle for preparation of lubiprostone. Lubiprostone was weighed and was suspended in 0.5% MC at preparation concentrations of 1, 3 and 10 mg/mL to prepare control substances.
# Magnesium sulfate (MgSO4) (Wako pure chemical) was weighed and was dissolved in distilled water at a preparation concentrations of 200 mg/mL to prepare a positive control substance.
# A soluble starch, sucrose and lactose monohydrate were weighed at a rate of 6:3:1 and were dissolved in distilled water which was approximately 80% of the amounts of preparation on heating, and then the mixture was added with distilled water to prepare 0.4 g/mL solution of mixed carbohydrate.
# A low-fiber diet was prepared based on the literature (Kakino et al. BMC Complementary and Alternative Medicine 2010, 10: 68).
# Rats were fed on the low-fiber diet for 1-2 weeks to induce constipation.
# Compound 2 (3 mg/kg, 10 mg/kg or 30 mg/kg as free drug), lubiprostone (1 mg/kg, 3 mg/kg or 10 mg/kg), MgSO4 (2000 mg/kg) or a vehicle (distilled water: Control group 1, 0.5% MC: Control group 2) was administered orally at around 9 a.m. using a 1 mL glass syringe and a stomach tube. Then, 0.4 g/mL solution of mixed carbohydrate was administered orally at 2 mL/body to Control group 1 and the groups administered with Compound 2. Distilled water was administered to the normal feed group.
# The sum of the fecal weights at the collection times was set as the fecal weight at 24 hours after the administration.
# The statistical analysis was made by testing the uniformity of variance using Bartlett's method, and multiple comparison between Control group 1 and the group administered with Compound 2 or Control group 2 and the group administered with lubiprostone was made using Dunnett's method when variance was uniform respectively, and multiple comparison was made using Steel's method when variance was not uniform. In each case, significance level<5% was considered as significant difference.
# [3] = test system: Loperamide-induced dog constipation model; experiment: Loperamide-induced dog constipation model (Example 1); assay type: in vivo; settings: for Dry fecal weight within 24 hours after the administration / Wet fecal weight within 24 hours after the administration / Frequency of bowel movement within 24 hours after the administration: mean of 10 dogs; for Dry fecal weight within 24 hours after the administration: Control group 1.0, Normal group 47.1; for Wet fecal weight within 24 hours after the administration: Control group 2.8, Normal group 136.2; for Frequency of bowel movement within 24 hours after the administration: observation at 17, 21, 24 hours, Control group 0.2, Normal group 2.1
# Protocol: Lubiprostone (TLC Pharma Chem) was weighed and was suspended in 0.5% methylcellulose at preparation concentrations of 0.05 and 0.35 mg/mL to prepare control substances.
# Loperamide hydrochloride (Wako pure chemical) was weighed at 0.3, 0.5, 1.0, 2.0, 4.0 or 8.0 mg/kg for each animal and was filled into a gelatin capsule.
# Loperamide hydrochloride which was filled into a gelatin capsule was orally administered to dogs (beagle, male, 13-14 months old, 10 dogs, Kitayama-labesu). The dosage was increased from 0.3 mg/kg, and was set at 2.0, 4.0 or 8.0 mg/kg based on the bowel movement condition of each dog.
# Tests were performed as a full cross-over trial. More than 5-day washout period was provided between each test, and a recovery of stool form was identified, and then the next test was performed.
# A gelatin capsule which was filled with loperamide hydrochloride was administered orally at around 9 a.m. on the first and second days in each test.
# The stool form of feces was scored in seven categories based on Bristol Stool Form Scale. The collected feces were dried fully, and then the feces were weighed, and it was set as the dry fecal weight.
# [4] = test system: healthy adult males; experiment: Multiple-dose study in healthy adult males (Example 4); assay type: in vivo, human; settings: for Daily frequency of bowel movement after the administration, Mean: once daily Days 1 and 13, 3 times daily Days 3 to 12, daily mean during fifteen days, 8 subjects, Placebo 1.0; for Number of subject with gastrointestinal disorders: Abdominal pain / Number of subject with gastrointestinal disorders: Diarrhea: of 8 subjects; for Number of subject with gastrointestinal disorders: Abdominal pain: Placebo 0; for Number of subject with gastrointestinal disorders: Diarrhea: Placebo 3
# Protocol: Compound 2 at a dose of 2, 5, 10 or 20 mg (free drug equivalent), a placebo, or miglitol at a dose of 50 mg was repetitively administered orally once daily just immediately before breakfast on administration Days 1 and 13, and 3 times daily just immediately before every meal on administration Days 3 to 12 to healthy adult males. For the administration of Compound 2, tablets containing 1, 5 or 10 mg in free drug equivalent were used. The test period was set between administration Day 1 and Day 15. Frequencies of bowel movements were checked during consultation by a doctor, and the adverse events (gastrointestinal disorders) were defined when an abnormal finding (diarrhea or loose stool) was seen based on the stool form and the finding. In this regard, the frequencies of bowel movements in Table 8 show the daily means during fifteen days (time/day).
structure (smiles),measurement,setting,value
"Cc1cc(OCCCNCC(C)(C)C(N)=O)ccc1Cc1c(O[C@@H]2O[C@H](CO)[C@@H](O)[C@H](O)[C@H]2O)n[nH]c1C(C)C.Cc1cc(OCCCNCC(C)(C)C(N)=O)ccc1Cc1c(O[C@@H]2O[C@H](CO)[C@@H](O)[C@H](O)[C@H]2O)n[nH]c1C(C)C.O=C(O)CCCCCCCCC(=O)O [Compound 2, bis[3-(3-{4-[3-(β-D-glucopyranosyloxy)-5-isopropyl-1H-pyrazol-4-ylmethyl]-3-methylphenoxy}propylamino)-2,2-dimethylpropionamide]monosebacate]",Stool form (Bristol Stool Form Scale),[1]; 80 mg and 160 mg groups,type 6 or 7 for many subjects
same,Number of subject with gastrointestinal disorders: Abdominal bloating,[1]; single dose 2 mg,0
same,Number of subject with gastrointestinal disorders: Abdominal pain,[1]; single dose 2 mg,0
same,Number of subject with gastrointestinal disorders: Diarrhea,[1]; single dose 2 mg,1
same,Number of subject with gastrointestinal disorders: Abdominal bloating,[1]; single dose 5 mg,0
same,Number of subject with gastrointestinal disorders: Abdominal pain,[1]; single dose 5 mg,0
same,Number of subject with gastrointestinal disorders: Diarrhea,[1]; single dose 5 mg,0
same,Number of subject with gastrointestinal disorders: Abdominal bloating,[1]; single dose 10 mg,0
same,Number of subject with gastrointestinal disorders: Abdominal pain,[1]; single dose 10 mg,0
same,Number of subject with gastrointestinal disorders: Diarrhea,[1]; single dose 10 mg,2
same,Number of subject with gastrointestinal disorders: Abdominal bloating,[1]; single dose 20 mg,0
same,Number of subject with gastrointestinal disorders: Abdominal pain,[1]; single dose 20 mg,0
same,Number of subject with gastrointestinal disorders: Diarrhea,[1]; single dose 20 mg,2
same,Number of subject with gastrointestinal disorders: Abdominal bloating,[1]; single dose 40 mg,0
same,Number of subject with gastrointestinal disorders: Abdominal pain,[1]; single dose 40 mg,0
same,Number of subject with gastrointestinal disorders: Diarrhea,[1]; single dose 40 mg,2
same,Number of subject with gastrointestinal disorders: Abdominal bloating,[1]; single dose 80 mg,2
same,Number of subject with gastrointestinal disorders: Abdominal pain,[1]; single dose 80 mg,4
same,Number of subject with gastrointestinal disorders: Diarrhea,[1]; single dose 80 mg,5
same,Number of subject with gastrointestinal disorders: Abdominal bloating,[1]; single dose 160 mg,3
same,Number of subject with gastrointestinal disorders: Abdominal pain,[1]; single dose 160 mg,3
same,Number of subject with gastrointestinal disorders: Diarrhea,[1]; single dose 160 mg,6
same,"Severity of gastrointestinal disorders (abdominal bloating, abdominal pain, diarrhea)",[1]; single dose 2-160 mg,mild in all the cases
same,"Frequency of bowel movement after the administration, Mean",[1]; single oral dose 2 mg (free drug equivalent),1.7 time
same,"Frequency of bowel movement after the administration, Mean",[1]; single oral dose 5 mg (free drug equivalent),1.0 time
same,"Frequency of bowel movement after the administration, Mean",[1]; single oral dose 10 mg (free drug equivalent),2.2 time
same,"Frequency of bowel movement after the administration, Mean",[1]; single oral dose 20 mg (free drug equivalent),2.2 time
same,"Frequency of bowel movement after the administration, Mean",[1]; single oral dose 40 mg (free drug equivalent),1.8 time
same,"Frequency of bowel movement after the administration, Mean",[1]; single oral dose 80 mg (free drug equivalent),4.8 time
same,"Frequency of bowel movement after the administration, Mean",[1]; single oral dose 160 mg (free drug equivalent),5.2 time
same,Fecal weight within 24 hours after the administration,[2]; 3 mg/kg as free drug oral,1.20 g
same,Fecal weight within 24 hours after the administration,[2]; 10 mg/kg as free drug oral,4.20 g
same,Fecal weight during 24 hours versus Control group,"[2]; 10 mg/kg or more, versus Control group 1, significance level <5%",significantly higher than in each Control group
same,Fecal weight within 24 hours after the administration,[2]; 30 mg/kg as free drug oral,4.93 g
same,Dose dependence of fecal weight during 24 hours after the administration,[2]; oral,dose-dependently increased
same,Dry fecal weight within 24 hours after the administration,[3]; 1 mg/kg oral,10.4 g
same,Wet fecal weight within 24 hours after the administration,[3]; 1 mg/kg oral,29.5 g
same,Frequency of bowel movement within 24 hours after the administration,[3]; 1 mg/kg oral,0.5 time
same,"Wet fecal weight, dry weight and frequency of bowel movements versus Control group","[3]; 3 mg/kg or more, significance level <5%",significantly higher than in Control group
same,Dry fecal weight within 24 hours after the administration,[3]; 3 mg/kg oral,21.6 g
same,Wet fecal weight within 24 hours after the administration,[3]; 3 mg/kg oral,60.9 g
same,Frequency of bowel movement within 24 hours after the administration,[3]; 3 mg/kg oral,1.2 time
same,Dry fecal weight within 24 hours after the administration,[3]; 10 mg/kg oral,27.3 g
same,Wet fecal weight within 24 hours after the administration,[3]; 10 mg/kg oral,77.2 g
same,Frequency of bowel movement within 24 hours after the administration,[3]; 10 mg/kg oral,1.5 time
same,Increases of loose stool and diarrhea,[3]; all doses of this test,not observed
same,"Dose dependence of wet fecal weight, dry weight and frequency of bowel movements",[3]; within 24 hours after oral administration,dose-dependently increased
same,"Daily frequency of bowel movement after the administration, Mean",[4]; 2 mg,1.4 time/day
same,"Daily frequency of bowel movement after the administration, Mean",[4]; 5 mg,1.1 time/day
same,"Daily frequency of bowel movement after the administration, Mean",[4]; 10 mg,2.0 time/day
same,"Daily frequency of bowel movement after the administration, Mean",[4]; 20 mg,1.7 time/day
same,Number of subject with gastrointestinal disorders: Abdominal pain,[4]; multiple dose 2 mg,0
same,Number of subject with gastrointestinal disorders: Diarrhea,[4]; multiple dose 2 mg,6
same,Number of subject with gastrointestinal disorders: Abdominal pain,[4]; multiple dose 5 mg,0
same,Number of subject with gastrointestinal disorders: Diarrhea,[4]; multiple dose 5 mg,5
same,Number of subject with gastrointestinal disorders: Abdominal pain,[4]; multiple dose 10 mg,0
same,Number of subject with gastrointestinal disorders: Diarrhea,[4]; multiple dose 10 mg,5
same,Number of subject with gastrointestinal disorders: Abdominal pain,[4]; multiple dose 20 mg,1
same,Number of subject with gastrointestinal disorders: Diarrhea,[4]; multiple dose 20 mg,6
